The experiment deals with PRMT5/MEP50 protein complex (Homo sapiens (Human), UniProt O14744). The experiment can be described thus: PRMT5 biochemical assay (3H-SAM methylation of H4(1-21) peptide, filter plate scintillation counting). The note with it: PRMT5 enzyme inhibition; 10 nM PRMT5/MEP50 complex, 200 nM H4(1-21) peptide, 1 uM SAM, 25 minute incubation at room temperature. The method, then:
Following dilution, 1 ul was added to an empty 96-well microtiter plate. PRMT5/MEP50 protein complex was combined with H4(1-21) peptide ([…]) in PRMT5 assay buffer (50 mM Tris pH 8.5, 50 mM NaCl, 5 mM MgCl2, 1 mM EDTA, 1 mM TCEP) and 44 ul was added to the microtiter plate containing compound. S-Adenosyl-L-methionine (SAM) was prepared by combining ^3H labelled SAM with unlabelled SAM in PRMT5 assay buffer such that the final SAM concentration was 10 uM and the specific activity was 0.2 uCi/ul. The reaction was initiated by adding 5 ul of SAM stock to the microtiter plate. The final reaction conditions were 10 nM PRMT5/MEP50 complex, 200 nM peptide and 1 uM SAM. Following a 25 minute incubation at room temperature, the reaction was stopped with the addition of 100 uL of 20% TCA. The 3H-peptide product was captured using a 96-well filter plate (MSIPN4B, Millipore) and washed 5 times with PBS buffer. Scintillation fluid (100 ul) was added to the dried filter plate and counted in a liquid scintillation counter. IC50 values were determined by fitting the data to the standard 4-parameter dose response equation using Pfizer proprietary software.
In the final construct PRMT5 ORF was under control of polyhedrin promoter (polH) while MEP50 ORF was under control of p10 promoter.
Viruses were generated using standard Bac-to-Bac viral generation protocols (Life Technologies) and amplified to high-titer passage two (P2) stocks. Protein over expression was conducted in exponentially growing Sf21 cells infected at 2×106 with P2 viral stock at MOI=1 of PRMT5-Mep50 dual construct virus and Mep50 construct virus at 1:1 ratio. The co-expression protocol was used to supplement additional Mep50 for FlagPRMT5-Mep50 heterodimer formation. Cells were harvested at 72 h post infection by centrifugation and frozen pellet was stored at −80° C.
FlagPRMT5-Mep50 complex was purified from cell lysate using Flag affinity chromatography. Cell were lyzed in 50 mM Tris 7.5, 200 mM NaCl, 10% glycerol, 0.25 mM TCEP supplemented with EDTA-free protease inhibitor cocktail (Roche). 1.5 ml of lysis buffer was added per 1 g of frozen pellet. The clarified lysate was obtained by centrifugation of cell lysate at 10,000 g for 1 h at 4 C. 5 ml of Anti-FLAG M2 Agarose (Sigma) […] was added to the clarified lysate to isolate FlagPRMT5-Mep50. Following batch binding for 3 h at 4 C, Flag resin bound to FlagPRMT5-Mep50 washed with 20 column volumes (CV) of 50 mM Tris 7.5, 200 mM NaCl, 10% glycerol, 0.25 mM TCEP followed by elution of FlagPRMT5-Mep50 complex using 3 CV of 50 mM Tris 7.5, 200 mM NaCl, 10% glycerol, 0.25 mM TCEP supplemented with 200 ug/ml of FLAG Peptide ([…]). […] Peak fractions containing FlagPRMT5-Mep50 complex were concentrated to 1.6 mg/ml, flash frozen in small aliquots using liquid nitrogen and stored at −80° C.
Sequence of PRMT5/MEP50 protein complex (O14744 other isoform, or with tags, fused parts or gaps): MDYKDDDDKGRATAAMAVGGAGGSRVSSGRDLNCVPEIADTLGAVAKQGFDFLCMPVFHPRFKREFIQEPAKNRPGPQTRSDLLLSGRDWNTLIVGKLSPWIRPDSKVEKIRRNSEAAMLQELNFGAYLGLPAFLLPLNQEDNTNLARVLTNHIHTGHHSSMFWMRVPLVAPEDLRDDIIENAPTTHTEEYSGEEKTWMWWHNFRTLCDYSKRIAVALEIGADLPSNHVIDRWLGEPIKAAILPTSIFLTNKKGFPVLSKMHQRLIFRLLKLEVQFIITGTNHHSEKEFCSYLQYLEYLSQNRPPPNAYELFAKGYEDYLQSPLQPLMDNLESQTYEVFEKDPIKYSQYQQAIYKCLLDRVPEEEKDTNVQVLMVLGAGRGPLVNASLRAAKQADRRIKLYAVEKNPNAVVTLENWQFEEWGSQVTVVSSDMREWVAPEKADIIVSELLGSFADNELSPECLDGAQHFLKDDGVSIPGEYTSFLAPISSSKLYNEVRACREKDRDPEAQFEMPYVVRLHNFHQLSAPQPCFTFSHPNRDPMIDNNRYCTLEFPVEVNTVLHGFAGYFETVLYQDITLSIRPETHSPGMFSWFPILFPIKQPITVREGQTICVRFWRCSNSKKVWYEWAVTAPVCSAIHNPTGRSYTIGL
Sequence of PRMT5/MEP50 protein complex (Q9BQA1 whole entry partner): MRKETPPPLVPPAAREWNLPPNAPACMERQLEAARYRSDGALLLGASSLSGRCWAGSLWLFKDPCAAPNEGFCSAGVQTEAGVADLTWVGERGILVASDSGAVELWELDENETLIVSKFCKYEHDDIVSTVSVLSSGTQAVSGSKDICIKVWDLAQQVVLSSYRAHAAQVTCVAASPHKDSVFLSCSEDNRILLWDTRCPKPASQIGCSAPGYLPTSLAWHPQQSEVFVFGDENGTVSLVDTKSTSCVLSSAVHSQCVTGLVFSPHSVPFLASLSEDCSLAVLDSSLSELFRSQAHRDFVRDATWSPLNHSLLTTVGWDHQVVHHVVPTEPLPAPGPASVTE
For orientation: IC50 means the point on the concentration scale where inhibition reaches its midpoint. A high value points to weaker potency. In the case of `Cc1ncnc2c1ccn2[C@@H]1O[C@H](C(O)CS(=O)(=O)c2ccccc2)[C@@H](O)[C@H]1O` (stereo in doubt) [Example 24, (2S,3S,4R,5R)-2-((R)-1-hydroxy-2-(phenylsulfonyl)ethyl)-5-(4-methyl-7H-pyrrolo[2,3-d]pyrimidin-7-yl)tetrahydrofuran-3,4-diol], the IC50 worked out at 30800 nM. In other words, the double-digit micromolar range.
The value for `CC[C@@H](O)[C@H]1O[C@@H](n2cnc3c(N)ncnc32)[C@H](O)[C@@H]1O` [Example 3, (2R,3R,4S,5R)-2-(6-amino-9H-purin-9-yl)-5-((R)-1-hydroxypropyl)tetrahydrofuran-3,4-diol] was 333 nM.
With `CC[C@H](O)[C@H]1O[C@@H](n2cnc3c(N)ncnc32)[C@H](O)[C@@H]1O` [Example 4, (2R,3R,4S,5R)-2-(6-amino-9H-purin-9-yl)-5-((S)-1-hydroxypropyl)tetrahydrofuran-3,4-diol] the figure was 44100 nM; with `CCC[C@@H](O)[C@H]1O[C@@H](n2cnc3c(N)ncnc32)[C@H](O)[C@@H]1O` [Example 5, (2R,3R,4S,5R)-2-(6-amino-9H-purin-9-yl)-5-((R)-1-hydroxybutyl)tetrahydrofuran-3,4-diol], 159 nM; with `CCC[C@H](O)[C@H]1O[C@@H](n2cnc3c(N)ncnc32)[C@H](O)[C@@H]1O` [Example 6, (2R,3R,4S,5R)-2-(6-amino-9H-purin-9-yl)-5-((S)-1-hydroxybutyl)tetrahydrofuran-3,4-diol], 21100 nM.
With `CC(C)C[C@@H](O)[C@H]1O[C@@H](n2cnc3c(N)ncnc32)[C@H](O)[C@@H]1O` [Example 7, (2R,3R,4S,5R)-2-(6-amino-9H-purin-9-yl)-5-((R)-1-hydroxy-3-methylbutyl)tetrahydrofuran-3,4-diol] the figure was 1830 nM.
For the compound `CC(C)C[C@H](O)[C@H]1O[C@@H](n2cnc3c(N)ncnc32)[C@H](O)[C@@H]1O` [Example 8, (2R,3R,4S,5R)-2-(6-amino-9H-purin-9-yl)-5-((S)-1-hydroxy-3-methylbutyl)tetrahydrofuran-3,4-diol], the IC50 amounted to 17900 nM.
With `Cc1ncnc2c1ccn2[C@@H]1O[C@H]([C@H](O)c2ccnc(N(C)C)c2)[C@@H](O)[C@H]1O` [Example 14, (2R,3S,4R,5R)-2-((R)-(2-(dimethylamino)pyridin-4-yl)(hydroxy)methyl)-5-(4-methyl-7H-pyrrolo[2,3-d]pyrimidin-7-yl)tetrahydrofuran-3,4-diol] the figure was 17 nM; with `Cc1ncnc2c1ccn2[C@@H]1O[C@H]([C@H](O)c2ccc3cnn(C)c3c2)[C@@H](O)[C@H]1O` [Example 15, (2R,3S,4R,5R)-2-((R)-hydroxy(1-methyl-1H-indazol-6-yl)methyl)-5-(4-methyl-7H-pyrrolo[2,3-d]pyrimidin-7-yl)tetrahydrofuran-3,4-diol], 39 nM; with `Cc1ncnc2c1ccn2[C@@H]1O[C@H]([C@H](O)c2cccc(C(F)(F)F)c2)[C@@H](O)[C@H]1O` [Example 16, (2R,3S,4R,5R)-2-((R)-hydroxy(3-(trifluoromethyl)phenyl)methyl)-5-(4-methyl-7H-pyrrolo[2,3-d]pyrimidin-7-yl)tetrahydrofuran-3,4-diol], 23 nM.
With `Cc1ncnc2c1ccn2[C@@H]1OC([C@H](O)c2cc(F)cc(C(F)(F)F)c2)[C@@H](O)[C@H]1O` (stereo partly drawn) [Example 17, (3S,4R,5R)-2-((3-fluoro-5-(trifluoromethyl)phenyl)(hydroxy)methyl)-5-(4-methyl-7H-pyrrolo[2,3-d]pyrimidin-7-yl)tetrahydrofuran-3,4-diol] the figure was 2270 nM; with `Cc1ncnc2c1ccn2[C@@H]1O[C@H]([C@H](O)c2ccc(F)c(C(F)(F)F)c2)[C@@H](O)[C@H]1O` [Example 18, (2R,3S,4R,5R)-2-((R)-(4-fluoro-3-(trifluoromethyl)phenyl)(hydroxy)methyl)-5-(4-methyl-7H-pyrrolo[2,3-d]pyrimidin-7-yl)tetrahydrofuran-3,4-diol], 4 nM; with `Cc1ncnc2c1ccn2[C@@H]1O[C@H]([C@H](O)c2cccc(S(C)(=O)=O)c2)[C@@H](O)[C@H]1O` [Example 19, (2R,3S,4R,5R)-2-((R)-hydroxy(3-(methylsulfonyl)phenyl)methyl)-5-(4-methyl-7H-pyrrolo[2,3-d]pyrimidin-7-yl)tetrahydrofuran-3,4-diol], 65 nM.
As to `Cc1ncnc2c1ccn2[C@@H]1O[C@H]([C@H](O)c2ccc(S(C)(=O)=O)cc2)[C@@H](O)[C@H]1O` [Example 20, (2R,3S,4R,5R)-2-((R)-hydroxy(4-(methylsulfonyl)phenyl)methyl)-5-(4-methyl-7H-pyrrolo[2,3-d]pyrimidin-7-yl)tetrahydrofuran-3,4-diol], the IC50 turned out to be 54 nM.
In turn, `Cc1ncnc2c1ccn2[C@@H]1O[C@H]([C@H](O)c2ccc3occ(C(F)F)c3c2)[C@@H](O)[C@H]1O` [Example 21, (2R,3S,4R,5R)-2-((R)-(3-(difluoromethyl)benzofuran-5-yl)(hydroxy)methyl)-5-(4-methyl-7H-pyrrolo[2,3-d]pyrimidin-7-yl)tetrahydrofuran-3,4-diol] gave an IC50 of 33 nM.
With `Cc1ncnc2c1ccn2[C@@H]1O[C@H]([C@H](O)c2ccc3ncn(C(F)F)c3c2)[C@@H](O)[C@H]1O` [Example 22, (2R,3S,4R,5R)-2-((R)-(1-(difluoromethyl)-1H-benzo[d]imidazol-6-yl)(hydroxy)methyl)-5-(4-methyl-7H-pyrrolo[2,3-d]pyrimidin-7-yl)tetrahydrofuran-3,4-diol] the figure was 108 nM.
Turning to `Cc1ncnc2c1ccn2[C@@H]1O[C@H]([C@H](O)c2ccc3c(c2)ncn3C(F)F)[C@@H](O)[C@H]1O` [Example 23, (2R,3S,4R,5R)-2-((R)-(1-(difluoromethyl)-1H-benzo[d]imidazol-5-yl)(hydroxy)methyl)-5-(4-methyl-7H-pyrrolo[2,3-d]pyrimidin-7-yl)tetrahydrofuran-3,4-diol], the midpoint of inhibition, the IC50, lay at 793 nM.
With `Cc1ncnc2c1ccn2[C@@H]1O[C@H]([C@H](O)Cc2ccccc2)[C@@H](O)[C@H]1O` [Example 28, (2R,3S,4R,5R)-2-((R)-1-hydroxy-2-phenylethyl)-5-(4-methyl-7H-pyrrolo[2,3-d]pyrimidin-7-yl)tetrahydrofuran-3,4-diol] the figure was 11200 nM; with `Cc1ncnc2c1ccn2[C@@H]1O[C@H]([C@@H](O)Cc2ccccc2)[C@@H](O)[C@H]1O` [Example 29, (2R,3S,4R,5R)-2-((S)-1-hydroxy-2-phenylethyl)-5-(4-methyl-7H-pyrrolo[2,3-d]pyrimidin-7-yl)tetrahydrofuran-3,4-diol], 200000 nM; with `Cc1ncnc2c1ccn2[C@@H]1O[C@H]([C@H](O)CCc2ccccc2)[C@@H](O)[C@H]1O` [Example 30, (2R,3S,4R,5R)-2-((R)-1-hydroxy-3-phenylpropyl)-5-(4-methyl-7H-pyrrolo[2,3-d]pyrimidin-7-yl)tetrahydrofuran-3,4-diol], 752 nM.
The value for `Cc1ncnc2c1ccn2[C@@H]1O[C@H]([C@@H](O)CCc2ccccc2)[C@@H](O)[C@H]1O` [Example 31, (2R,3S,4R,5R)-2-((S)-1-hydroxy-3-phenylpropyl)-5-(4-methyl-7H-pyrrolo[2,3-d]pyrimidin-7-yl)tetrahydrofuran-3,4-diol] was 61700 nM.
`Cc1ncnc2c1ccn2[C@@H]1O[C@H]([C@@H](O)c2cccc(F)c2)[C@@H](O)[C@H]1O` [Example 35, (2R,3S,4R,5R)-2-((S)-(3-fluorophenyl)(hydroxy)methyl)-5-(4-methyl-7H-pyrrolo[2,3-d]pyrimidin-7-yl)tetrahydrofuran-3,4-diol] displayed an IC50 of 1740 nM.
For `CC[C@H](O)[C@H]1O[C@@H](n2ccc3c(C)ncnc32)[C@H](O)[C@@H]1O` [Example 41, (2R,3S,4R,5R)-2-((S)-1-hydroxypropyl)-5-(4-methyl-7H-pyrrolo[2,3-d]pyrimidin-7-yl)tetrahydrofuran-3,4-diol], the IC50 came to 3850 nM.
